Results from PMC9863987, “Identification of Aryl Polyamines Derivatives as Anti-Trypanosoma cruzi Agents Targeting Iron Superoxide Dismutase” (Pharmaceutics, 2022).

Key:
[1] = system: T. cruzi Tulahuen strain epimastigotes; assay: Screening against extracellular epimastigotes, Tulahuen strain (resazurin); format: cell-based, Trypanosoma cruzi
Method: (§1) Three different T. cruzi […] strains—MHOM/Pe/2011/Arequipa, discrete typing unit (DTU) V [26]; IRHOD/CO/2008/SN3, DTU I [27]; TINF/CH/1956/Tulahuen, DTU VI [26]—were grown at 28 °C in Gibco® RPMI 1640 Medium supplemented as previously reported, and used for in vitro screening.
(§2) Trypanocidal activity against epimastigotes was tested as previously reported. In brief, 5 × 10^5 mL^−1 epimastigotes culture medium were treated by adding the compounds in serial dilutions from 100 to 0.2 µM in 96-well plates (200 µL·well^−1) for 48 h. BZN and untreated growth control were also included in triplicate. Later, 20 μL of resazurin sodium salt (Sigma-Aldrich, St. Louis, MO, USA) was added, and the plates were incubated for another 24 h. Finally, the absorbance of the wells was measured at 570/600 nm and related to the control. The trypanocidal activity was expressed as the IC50 (inhibitory concentration 50) value using GraphPad Prism 6 software.

[2] = system: T. cruzi SN3 strain epimastigotes; assay: Screening against extracellular epimastigotes, SN3 strain (resazurin); format: cell-based, Trypanosoma cruzi
Method: as §1, §2

[3] = format: in vivo, BALB/c mice; conditions: oral 20 mg/Kg/day for 5 days; acute and chronic infections
Method: (§3) All animal work (Scheme 1) and maintenance was performed under RD53/2013 and approved by the Ethics Committee on Animal Experimentation (CEEA) of the University of Granada, Spain. Female BALB/c mice (aged 10–12 weeks and 20–22 g) were used in the subsequent in vivo assays.
(§4) Infection was carried out by intraperitoneal inoculation of 5 × 10^5 BTs of T. cruzi Arequipa strain per mouse in 0.2 mL PBS [26]. The infection was monitored and on the 10th day post-infection (dpi), when BTs were visible in the bloodstream, the infection was confirmed.
(§5) Mice were divided into four groups (n = 3 per group): 0, negative control group (uninfected and untreated mice); I, positive control group (infected and untreated mice); II, BZN group (mice infected and treated with BZN); III, 15 group (mice infected and treated with 15).
(§6) The treatment for mice treated in the acute and chronic CD began when the infection was confirmed (10th dpi) and was stablished that the animals had entered the chronic CD (75th dpi), respectively (Scheme 1). Compound 15 and BZN were orally administered for 5 consecutive days at a dose of 20 mg·Kg^−1·day^−1.

[4] = Clinical analysis of heart, kidney and liver markers in serum of treated mice; format: in vivo, BALB/c mice; conditions: n = 3
Method: as §4, §5, §6
Blood samples were collected in several dpi (Scheme 1) and processed according the method previously reported to obtain serum. Serum samples were then aliquoted to ELISA test and clinical analysis.
Heart, kidney and liver markers were measured from blood in several dpi (Scheme 1) with Cromakit® as previously reported. Mean and standard deviations were calculated using the levels measured for different populations of sera (n = 15, n = 3), and the confidence interval were also calculated based on a confidence level of 95% (100 × (1 − α) = 100 × (1 − 0.05)).

[5] = system: Trypanosoma cruzi epimastigotes; assay: Excreted metabolites by 1H NMR; format: cell-based; conditions: epimastigotes at IC25 concentration, 72 h; succinate and pyruvate most increased
Method: 5 × 10^5 mL^−1 epimastigotes culture medium were treated by adding the compounds at IC25 concentrations in 25 cm^2 cell culture flasks for 72 h. Untreated controls were also included in triplicate. Cultures were then centrifuged and filtered, and the metabolites of the supernatants were measured by ^1H NMR (VARIAN DIRECT DRIVE 500 MHz […]) with AutoX probe, D2O as solvent and 2,2-dimethyl-2-silapentane-5-sulphonate as the reference signal. Analyses were conducted as previously reported.

T. cruzi Arequipa strain [6] = assay: Monitoring of acute parasitaemia by counting in infected BALB/c mice; format: in vivo, Trypanosoma cruzi; conditions: acute infection
Method: as §3, §4, §5, §6
[…]. The fresh blood microscopic examination was performed from the 7th day until the day when parasitaemia was not detected (Scheme 1).

[7] = system: T. cruzi Tulahuen strain amastigotes; assay: Screening against intracellular amastigotes in Vero cells, Tulahuen strain (Giemsa counting); format: cell-based, Trypanosoma cruzi
Method: (§7) TINF/CH/1956/Tulahuen, DTU VI [26]—were grown at 28 °C in Gibco® RPMI 1640 Medium supplemented as previously reported, and used for in vitro screening. Trypanocidal activity against amastigotes was tested as previously reported. In brief, bloodstream trypomastigotes (BTs), obtained by cardiac puncture from infected BALB/c mice, were used to infect 1 × 10^4 Vero cells·well^−1 in 24-well plates with rounded coverslips at a multiplicity of infection (MOI) ratio of 10:1. After 24 h of infection, non-internalized trypomastigotes were washed and the infected cells were treated by adding the compounds in serial dilutions from 50 to 0.5 µM in […] for 72 h. BZN and untreated growth controls were also included in triplicate. Later, the number of amastigotes and infected cells were determined in Giemsa stained preparations by analysing 500 host cells randomly distributed in microscopic fields. The trypanocidal activity was expressed as the IC50 using GraphPad Prism 6 software (version 6.07).

[8] = system: T. cruzi Arequipa strain amastigotes; assay: Screening against intracellular amastigotes in Vero cells, Arequipa strain (Giemsa counting); format: cell-based, Trypanosoma cruzi
Method: as §7

T. cruzi Arequipa strain [9] = assay: Infection reactivation by cyclophosphamide immunosuppression in infected BALB/c mice; format: in vivo, Trypanosoma cruzi; conditions: oral 20 mg/Kg/day for 5 days, related to control group
[10] = IC50 Vero cells/IC50 epimastigotes
[11] = treatment in acute phase, 16th dpi (2 days after treatment)
[12] = treatment in acute phase, necropsy day
[13] = treatment in chronic phase, 81th dpi (2 days after treatment)
[14] = treatment in chronic phase, necropsy day
[15] = IC50 Vero cells/IC50 amastigotes

## c1cc2nc(c1)CNCCN(CCNCc1ccc3ccc4ccc(CNCCN5CCNCc6cccc(n6)CNCC5)nc4c3n1)CCNC2 [Compound 15]
[1]; [10]
  Selectivity Index T. cruzi Tulahuen Strain E: 57.4
[1]; Trypanosoma cruzi, TULAHUEN, epimastigotes, 48 h treatment + 24 h resazurin, mean of three ± SD, read-out: Activity IC50 T. cruzi Tulahuen Strain E
  IC50: 11.4 ± 1.1 µM
[2]; [10]
  Selectivity Index T. cruzi SN3 Strain E: 38.7
[2]; Trypanosoma cruzi, epimastigotes, 48 h treatment + 24 h resazurin, mean of three ± SD, read-out: Activity IC50 T. cruzi SN3 Strain E
  IC50: 16.9 ± 1.4 µM
[3]
  death or body mass loss of treated mice: none of the mice died or lost more than 10% body mass
[4]; [11]
  ALP, variation over the range: = (variation ≤ 10%)
  ALT/GPT, variation over the range: ++ (20-30% increase/decrease over the range)
  AST/GOT, variation over the range: ++ (20-30% increase/decrease over the range)
  CK-MB, variation over the range: -- (20-30% increase/decrease over the range)
  LDH, variation over the range: = (variation ≤ 10%)
  Total bilirubin, variation over the range: + (10-20% increase/decrease over the range)
  Urea, variation over the range: - (10-20% increase/decrease over the range)
  Uric acid, variation over the range: -- (20-30% increase/decrease over the range)
[4]; [12]
  ALP, variation over the range: = (variation ≤ 10%)
  ALT/GPT, variation over the range: + (10-20% increase/decrease over the range)
  AST/GOT, variation over the range: + (10-20% increase/decrease over the range)
  CK-MB, variation over the range: = (variation ≤ 10%)
  LDH, variation over the range: = (variation ≤ 10%)
  Total bilirubin, variation over the range: + (10-20% increase/decrease over the range)
  Urea, variation over the range: = (variation ≤ 10%)
  Uric acid, variation over the range: = (variation ≤ 10%)
[4]; [13]
  ALP, variation over the range: = (variation ≤ 10%)
  ALT/GPT, variation over the range: + (10-20% increase/decrease over the range)
  AST/GOT, variation over the range: + (10-20% increase/decrease over the range)
  CK-MB, variation over the range: - (10-20% increase/decrease over the range)
  LDH, variation over the range: = (variation ≤ 10%)
  Total bilirubin, variation over the range: ++ (20-30% increase/decrease over the range)
  Urea, variation over the range: -- (20-30% increase/decrease over the range)
  Uric acid, variation over the range: --- (30-40% increase/decrease over the range)
[4]; [14]
  ALP, variation over the range: = (variation ≤ 10%)
  ALT/GPT, variation over the range: = (variation ≤ 10%)
  AST/GOT, variation over the range: = (variation ≤ 10%)
  CK-MB, variation over the range: = (variation ≤ 10%)
  LDH, variation over the range: = (variation ≤ 10%)
  Total bilirubin, variation over the range: + (10-20% increase/decrease over the range)
  Urea, variation over the range: - (10-20% increase/decrease over the range)
  Uric acid, variation over the range: - (10-20% increase/decrease over the range)
[5]
  excretion of catabolites compared with untreated parasites: notably increased
T. cruzi Arequipa strain [6]; oral 20 mg/Kg/day for 5 days from 10th dpi, vs untreated control
  parasitaemia reduction on the day of maximum parasitaemia: ~ 65%
T. cruzi Arequipa strain [6]; oral 20 mg/Kg/day for 5 days, control detectable up to 50 dpi
  parasitaemia undetectable, days before control mice: 5 days
[7]; [15]
  Selectivity Index T. cruzi Tulahuen Strain A: 96.3
[7]; Trypanosoma cruzi, TULAHUEN, amastigotes in Vero cells, 72 h, mean of three ± SD
  IC50: 6.8 ± 0.7 µM
[8]; [15]
  Selectivity Index T. cruzi Arequipa Strain A: 262.0
[8]; Trypanosoma cruzi, amastigotes in Vero cells, 72 h, mean of three ± SD
  IC50: 2.5 ± 0.3 µM
T. cruzi Arequipa strain [9]; treatment in the acute infection
  reactivation of parasitaemia after immunosuppression: 60%
T. cruzi Arequipa strain [9]; treatment in the chronic infection (from 75th dpi)
  reactivation of parasitaemia after immunosuppression: 26%
